Calls of active or inactive are those of the source. No cut-off for these calls is given here.
Legend:
[1] = Induction of IKZF2 degradation in human GripTite 293 MSR cells assessed as reduction in IKZF2 level measured by PathHunter assay; assay type: cell-based
PBMC [2] = assay: Effect of compound on human PBMCs at 10 uM assessed as fold increase in IL-2 producing cells; assay type: functional, cell-based
PBMC [3] = assay: Effect of compound on human PBMCs at 10 uM assessed as decrease in CD4+ T cells proliferation; assay type: functional, cell-based
GripTite 293 MSR = assay: Induction of IKZF2 degradation in human GripTite 293 MSR cells at 10 uM assessed as reduction in IKZF2 level measured by PathHunter assay relative to control; assay type: cell-based; parameters: scale not given: the % may be the effect or the level left

| EC50 [1] [nM] | Compound | other results |
| --- | --- | --- |
| 590 | O=C1CCC(N2Cc3cc(C4CCN([C@@H](CO)c5ccccc5)CC4)ccc3C2=O)C(=O)N1 (single isomer, unassigned) |  |
|  | O=C1CCC(N2Cc3cc(C4CCN(Cc5ccccc5)CC4)ccc3C2=O)C(=O)N1 (stereo not given) | Activity (PBMC [2]): Active; Activity (PBMC [3]): Active |
| 210 | O=C1CCC(N2Cc3cc(C4CCCN(Cc5ccccc5)CC4)ccc3C2=O)C(=O)N1 (single isomer, unassigned; form 2) |  |
| 170 | O=C1CCC(N2Cc3cc(C4CCCN(Cc5ccccc5)CC4)ccc3C2=O)C(=O)N1 (single isomer, unassigned; form 1) |  |
| 850 | O=C1CCC(N2Cc3cc(C4CCN(C(CO)c5ccccc5)CC4)ccc3C2=O)C(=O)N1 (single isomer, unassigned) |  |
| 7 | CC(c1ccccc1)N1CCC(c2ccc3c(c2)CN(C2CCC(=O)NC2=O)C3=O)CC1 (racemic) |  |
| 9 | CC(c1ccccc1)N1CCC(c2ccc3c(c2)CN(C2CCC(=O)NC2=O)C3=O)CC1 (single isomer, unassigned) |  |
| 17 | C[C@H](c1ccccc1)N1CCC(c2ccc3c(c2)CN(C2CCC(=O)NC2=O)C3=O)CC1 (single isomer, unassigned) |  |
|  | CN1CC=C(c2ccc3c(c2)CN(C2CCC(=O)NC2=O)C3=O)CC1 (stereo not given) | Activity (GripTite 293 MSR): 35% |
